Consider one compound from patent publication US7893286B2, “Method for the synthesis of phospholipid ethers” (Cellectar, Inc., priority 2007, dated 2011).

This experiment has as its system A549 human non-small cell lung cancer xenografts. The experiment in a line: Antitumor effect of single-dose ^125I-NM404 on tumor volume in SCID mice bearing A549 xenografts. The class given is in vivo. Conditions: for effect on tumor volume compared to control animals: up to 10 weeks post-injection. The source says: FIG. 2, illustrates antitumor effect of single-dose treatment with ^125I-125-NM404 at doses of 50 (⊚), 150 (□), 250 (⋄) and 500 (∘) μCi in SCID mice bearing A549 human non-small cell lung cancer xenografts. In this figure, control animals show rapidly growing tumors over the 10-week assessment period.
FIG. 2 summarizes investigations into the efficacy of ^125I-NM404 treatment. These investigations provided assessments of tumor volume were made until 10 weeks post-injection or until no animal in the control group is alive, whatever came first. Summarizing the results, control animals show rapidly growing tumors over the 10-week assessment period. […] Tumor volumes are stable and same tumors appear “collapsed” (the tumor surface has caved in). Additionally, FIG. 3 illustrates that hair above the tumors fell off confirming substantial accumulation of radioactivity in these tumors.

Turning to `C[N+](C)(C)CCOP(=O)([O-])OCCCCCCCCCCCCCCCCCCc1ccc([125I])cc1` [^125I-NM404], the “effect on the tumor (appearance)” value (250 μCi, 4 weeks following injection) is given as “causes central necrosis”. Further, the “dose dependence of effect on tumor volume” value (doses 50-500 μCi) is listed as “dose-linear effect”. The tumor therapy efficacy entry (following single injection and fractionated dosing) was “effective tumor therapy treatment”. For the same compound, the “effect on tumor volume compared to control animals” value (single dose 50 μCi) was “did not show any difference”; the “effect on tumor volume compared to control animals” value (single dose 250 μCi) is “substantial and prolonged treatment effect”; the “effect on tumor volume compared to control animals” value (single dose 500 μCi) was “substantial and prolonged treatment effect”.
